According to US20030073731A1, “Compositions and methods of the use thereof achiral analogues of CC-1065 and the duocarmycins” (priority 2000, published 2003):
Read-outs that look alike come from different tables or passages of the source.

Legend:
NCI-H522 [1] = system: NCI-H522
IGROV1 = assay: cells; assay type: cell-based, human
MALME-3M = assay type: cell-based, human
786-0 [2] = system: 786-0
SR = assay: cells; assay type: cell-based, human
MCF7/ADR-RES = assay: cells; assay type: cell-based, human
OVCAR-4 = assay type: cell-based, human
[3] = system: PC3 (human prostate cancer cells); assay: cells; assay type: cell-based
Description: Cells were seeded in 96-well microtiter plates at densities of 1000 cells/well. The optimal seeding density was determined to ensure exponential growth in control wells throughout the experimental period and to obtain a linear relationship between absorbance at 492 nm and cell number when analyzed by the sulforhodamine B (SRB) assay (43). 24 hours after seeding the cells were incubated for 1 hour or continuously for 3 days with the drugs (concentration range 0.01 to 500 pM). The cells were washed once and then incubated in drug free medium for 6 days. At the end of the incubation cell growth was determined by the SRB assay, which quantifies viable cells by measuring their total cellular protein content. […] Similar studies were conducted against the growth of PC3 (human prostate cancer cells) and MCF-7 (human breast cancer cells).

SK-MEL-5 [4] = system: SK-MEL-5
HL-60 (TB) = assay: NCI in-vitro cytotoxicity screen, Leukemia panel; assay type: cell-based, human
Description: (§1) The compounds of this invention were also tested against the panel of 60 human cancer cell lines at the National Cancer Institute, Bethesda, Md. […] The cytotoxicity studies were conducted using a 48 hour exposure, and measuring the optical density of sulforhodamine B-derived color.

SNB-19 = assay: cells; details: Homo sapiens
HT29 = assay: cells; details: Homo sapiens
RPMI-8226 = assay: cells; details: Homo sapiens
NCI-H522 [5] = assay: cells; details: Homo sapiens
MOLT-4 = assay: cells; details: Homo sapiens
SF-539 = assay: cells; details: Homo sapiens
MDA-N = assay: cells; details: Homo sapiens
UACC-62 = assay: cells; details: Homo sapiens
KM12 = assay: cells; details: Homo sapiens
SK-MEL-5 [6] = assay: cells; details: Homo sapiens
NCI-H460 = assay: NCI in-vitro cytotoxicity screen, Non-Small Cell Lung Cancer panel; assay type: cell-based; details: Homo sapiens
Description: as §1

RXF 393 = assay: NCI in-vitro cytotoxicity screen, Renal Cancer panel; assay type: cell-based; details: Homo sapiens
Description: as §1

786-0 [7] = assay: cells; details: Homo sapiens
COLO 205 = assay: NCI in-vitro cytotoxicity screen, Colon Cancer panel; assay type: cell-based; details: Homo sapiens
Description: as §1

SW-620 = assay: cells; details: Homo sapiens
A498 = assay: NCI in-vitro cytotoxicity screen, Renal Cancer panel; assay type: cell-based; details: Homo sapiens
Description: as §1

## 4-(2-Chloroethyl)-3-[5-(5-benzofuran-2-carboxamido)indole-2-carboxamido]phenol [Compound 1]
NCI-H522 [1]
  GI50: 933 nM
  TGI: 3.00E-06 Molar
IGROV1
  GI50: 1500 nM
  TGI: 3.41E-06 Molar
NCI-H332M
  GI50: 2830 nM
  TGI: 9.60E-06 Molar
HCC-2998
  GI50: 1760 nM
  TGI: 3.56E-06 Molar
SK-MEL-2
  GI50: 1320 nM
  TGI: 2.67E-06 Molar
MALME-3M
  GI50: 1840 nM
  TGI: 3.56E-06 Molar
HOP-92
  GI50: 2620 nM
U251
  GI50: 2410 nM
  TGI: 1.23E-05 Molar
786-0 [2]
  GI50: 2620 nM
  TGI: 1.07E-05 Molar
K-562
  GI50: 2880 nM
  TGI: 9.59E-06 Molar
HCT-116
  GI50: 1940 nM
  TGI: 5.73E-06 Molar
SR
  GI50: 852 nM
  TGI: 8.12E-06 Molar
MCF7/ADR-RES; MCF7/ADR-RES
  GI50: 1650 nM
  TGI: 3.79E-06 Molar
MCF7/ADR-RES; MCF7/ADR-RES, Log10 Concentration (Molar) −4.0
  Percent Growth: −55%
MCF7/ADR-RES; MCF7/ADR-RES, Log10 Concentration (Molar) −7.0
  Percent Growth: 97%
PC-3
  GI50: 969 nM
  TGI: 3.99E-06 Molar
HCT-15
  GI50: 1910 nM
  TGI: 4.89E-06 Molar
NCI-H23
  GI50: 1670 nM
  TGI: 3.38E-06 Molar
MDA-MB-231/ATCC
  GI50: 2430 nM
  TGI: 7.10E-06 Molar
MDA-MB-231/ATCC; Log10 Concentration (Molar) −4.0
  Percent Growth: −65%
MDA-MB-231/ATCC; Log10 Concentration (Molar) −6.0
  Percent Growth: 92%
MDA-MB-231/ATCC; Log10 Concentration (Molar) −7.0
  Percent Growth: 97%
MDA-MB-231/ATCC; Log10 Concentration (Molar) −8.0
  Percent Growth: 94%
OVCAR-4
  GI50: 2390 nM
  TGI: 5.06E-06 Molar
[3]; PC3, Continuous exposure
  IC50: 3000 nM
SK-MEL-5 [4]
  GI50: 1730 nM
  TGI: 3.34E-06 Molar

## COC(=O)c1[nH]c2c(O)cc(NC(=O)c3cc4cc(OC)c(OC)c(OC)c4[nH]3)c(CCCl)c2c1C(=O)OC [Compound 22, Dimethyl 4-(2-chloroethyl)-7-hydroxy-5-(5,6,7-trimethoxyindole-2-carboxamido)indole-2,3-dicarboxylate]
IGROV1; Homo sapiens, IGROV-1, IGROV1
  GI50: 62.1 nM
HL-60 (TB); HL-60 (TB), Log10 Concentration −4.3
  Percent Growth: 3%
HL-60 (TB); HL-60 (TB), Log10 Concentration −5.3
  Percent Growth: 9%
HL-60 (TB); Homo sapiens, HL-60, read-out: LC50
  CC50: > 50000 nM
HL-60 (TB); Homo sapiens, HL-60 (TB)
  GI50: 60.4 nM
HOP-92; HOP-92
  TGI: 2.57E−07 Molar
SNB-19; SNB-19
  GI50: 173 nM
SNB-19; SNB-19, read-out: LC50
  CC50: > 50000 nM
HT29; HT-29
  GI50: 68.1 nM
HT29; HT-29, read-out: LC50
  CC50: 2340 nM
RPMI-8226; RPMI-8226
  GI50: 190 nM
RPMI-8226; RPMI-8226, read-out: LC50
  CC50: > 50000 nM
SR; Homo sapiens, SR, SB
  GI50: 5.6 nM
NCI-H522 [5]; NCI-H522
  GI50: 57.7 nM
NCI-H522 [5]; NCI-H522, read-out: LC50
  CC50: 373 nM
MOLT-4; MOLT-4
  GI50: 10.5 nM
MOLT-4; MOLT-4, read-out: LC50
  CC50: > 50000 nM
SF-539; SF-539
  GI50: 80.4 nM
SF-539; SF-539, read-out: LC50
  CC50: 608 nM
MCF7/ADR-RES; Homo sapiens, NCI/ADR-RES
  GI50: 137 nM
MDA-N
  GI50: 150 nM
MDA-N; read-out: LC50
  CC50: > 50000 nM
UACC-62; UACC-62
  GI50: 78.2 nM
UACC-62; UACC-62, read-out: LC50
  CC50: 436 nM
KM12; KM12
  GI50: 87.4 nM
KM12; KM12, read-out: LC50
  CC50: 474 nM
SK-MEL-5 [6]; SK-MEL-5
  GI50: 32.3 nM
SK-MEL-5 [6]; SK-MEL-5, read-out: LC50
  CC50: > 50000 nM
NCI-H460
  GI50: 114 nM
[3]; Homo sapiens, PC3, 1 hour exposure
  IC50: 350 nM
[3]; Homo sapiens, PC3, Continuous exposure
  IC50: 50 nM
RXF 393; RXF 393
  GI50: 74.7 nM
RXF 393; RXF 393, read-out: LC50
  CC50: 21500 nM
786-0 [7]; 786-0
  GI50: 123 nM
786-0 [7]; 786-0, read-out: LC50
  CC50: > 50000 nM
COLO 205; COLO 205
  GI50: 233 nM
COLO 205; COLO 205, read-out: LC50
  CC50: > 50000 nM
SW-620; SW-620
  GI50: 109 nM
SW-620; SW-620, read-out: LC50
  CC50: > 50000 nM
A498; A498
  GI50: 164 nM
A498; A498, read-out: LC50
  CC50: 20700 nM
